According to patent US12678490B2, “Pharmaceutical combinations comprising insulin and at least an agent selected from meloxicam, bromfenac sodium, acetylsalicylic acid, salicyclic acid and paracetamol” (Eli Lilly and Company, priority 2017, dated 2026):

Assays:
[1] = Insulin lispro co-formulation stability, main peak loss and HMWP growth by analytical RP-HPLC; assay type: physicochemical; conditions: co-formulated with insulin lispro, 37° C.
Protocol: Two separate formulations are prepared as described above with 20 mM acetylsalicylic acid or 90 mM paracetamol; however, the m-cresol is excluded from the formulation. All samples are adjusted with water to achieve the final concentrations. […] All samples are filtered using 0.22 um syringe filter ([…]). […] The samples are visibly inspected for particulate or precipitation throughout study. Insulin lispro main peak loss and HMWP growth are tracked over time using HPLC. […] The UV detector is set to 214 nm wavelength, column temperature to 40° C., flowrate to 1 mL/min, and injection volume to 5 uL of each formulation. […] The data is collected and slope analysis of rate of change per day is performed using Y by X plots using commercial software.

plasma glucose = test: Pre-clinical in vivo CSII model, local or oral dexamethasone with insulin lispro bolus; set-up: species or system Yucatan mini pigs; conditions: for Baseline-adjusted area under the curve for plasma glucose over the 6 hours following an insulin bolus: 0.15 U/kg U100 insulin lispro bolus, mean ± SEM; for improving infusion site viability: local delivery, 0.25 mg/h (6 mg/d)

Row | Structure (SMILES) | impact on insulin lispro stability [1] | Baseline-adjusted area under the curve for plasma glucose over the 6 hours following an insulin bolus (plasma glucose; Oral: 25 uL/h insulin placebo + twice daily oral 3 mg dexamethasone, day 0) | Baseline-adjusted area under the curve for plasma glucose over the 6 hours following an insulin bolus (plasma glucose; Oral: 25 uL/h insulin placebo + twice daily oral 3 mg dexamethasone, day 3) | Baseline-adjusted area under the curve for plasma glucose over the 6 hours following an insulin bolus (plasma glucose; Oral: 25 uL/h insulin placebo + twice daily oral 3 mg dexamethasone, day 5) | Baseline-adjusted area under the curve for plasma glucose over the 6 hours following an insulin bolus (plasma glucose; Oral: 25 uL/h insulin placebo + twice daily oral 3 mg dexamethasone, day 7) | Baseline-adjusted area under the curve for plasma glucose over the 6 hours following an insulin bolus (plasma glucose; Oral: 25 uL/h insulin placebo + twice daily oral 3 mg dexamethasone, day 10) | Baseline-adjusted area under the curve for plasma glucose over the 6 hours following an insulin bolus (plasma glucose; Subcutaneous: continuous infusion of 0.25 mg/h dexamethasone, day 0) | Baseline-adjusted area under the curve for plasma glucose over the 6 hours following an insulin bolus (plasma glucose; Subcutaneous: continuous infusion of 0.25 mg/h dexamethasone, day 3) | Baseline-adjusted area under the curve for plasma glucose over the 6 hours following an insulin bolus (plasma glucose; Subcutaneous: continuous infusion of 0.25 mg/h dexamethasone, day 5) | Baseline-adjusted area under the curve for plasma glucose over the 6 hours following an insulin bolus (plasma glucose; Subcutaneous: continuous infusion of 0.25 mg/h dexamethasone, day 7) | Baseline-adjusted area under the curve for plasma glucose over the 6 hours following an insulin bolus (plasma glucose; Subcutaneous: continuous infusion of 0.25 mg/h dexamethasone, day 10) | improving infusion site viability (plasma glucose) | improving infusion site viability (plasma glucose; listed as dexamethosone) | effect on infusion site viability (plasma glucose; orally delivered)
1 | CC(=O)Nc1ccc(O)cc1 [paracetamol, N-(4-hydroxypehnyl)acetamide] | minimal impact on insulin lispro stability | – | – | – | – | – | – | – | – | – | – | – | – | –
2 | C[C@@H]1C[C@H]2[C@@H]3CCC4=CC(=O)C=C[C@]4(C)[C@@]3(F)[C@@H](O)C[C@]2(C)[C@@]1(O)C(=O)CO [Dexamethasone, (8S,9R,10S,11S,13S,14S,16R,17R)-9-fluoro-11,17-dihydroxy-17-(2-hydroxyacetyl)-10,13,16-trimethyl-6,7,8,11,12,14,15,16-octahydrocyclopenta[a]phenanthren-3-one] | – | −14218 ± 754 | −5265 ± 2130 | −8109 ± 987 | −7750 ± 1491 | −4266 ± 1551 | −16700 ± 2027 | −12591 ± 873 | −12297 ± 755 | −7149 ± 1555 | −4893 ± 775 | up to 5 days | 5 days | no effect
3 | CC(=O)Oc1ccccc1C(=O)O [acetylsalicylic acid, 2-acetoxybenzoic acid] | minimal impact on insulin lispro stability | – | – | – | – | – | – | – | – | – | – | – | – | –
